The record followed here is PubChem BioAssay (NCI).

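Interpolation was linear, between the two tested concentrations surrounding the appropriate level; five concentrations were tested over 48 hours in 96-well plates. The concentration for full growth arrest is given as TGI.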

Assay in all cases: DTP human tumour cell line panel, 48 h
Assay [1] relates to HT29 colon.
The test system of assay [2] is MCF7 breast.
Assay [3] deals with MDA-MB-435.
In assay [4] the test system is UACC-62 melanoma.
For assay [5], the system named is HCT-116 colon.
Assay [6] has as its system SF-539 CNS.
For assay [7], the system named is HOP-92 NSCLC.
The subject of assay [8] is SK-MEL-28 melanoma.
Assay [9] concerns OVCAR-5 ovarian.
The test system of assay [10] is TK-10 renal.
Assay [11] deals with NCI-H460 lung.
In assay [12] the test system is SNB-19 CNS.
Assay [13] deals with IGROV1 ovarian.
The test system of assay [14] is EKVX NSCLC.
The test system of assay [15] is HCC-2998 colon.
Assay [16] deals with KM12 colon.
Assay [17] concerns OVCAR-3 ovarian.

`O=C(NN1C(=O)c2ccccc2C1=O)c1ccccc1Nc1ccccc1C(=O)NN1C(=O)c2ccccc2C1=O`: the TGI in assay [1], in assay [2], in assay [3], in assay [4], in assay [5] and in assay [6] was more than 100 µM each time. Further, the concentration for total growth inhibition (TGI) in assay [7], in assay [8], in assay [9], in [10], in [11] and in assay [12] was more than 100 µM each time. In addition, the TGI in assay [13], in [14], in assay [15], in assay [16] and in assay [17] was more than 100 µM each time.

In the case of `CCCCc1ccc(N2C(=O)c3cccnc3S2(=O)=O)cc1`, the TGI in assay [1], in [2], in assay [3], in [4], in assay [5] and in assay [6] was more than 100 µM in each case. For the same compound, the TGI in assay [7], in assay [8], in [9], in assay [11], in [12] and in assay [13] was more than 100 µM each time. Moreover, the TGI in assay [14], in [15], in assay [16] and in [17] was more than 100 µM in each case.

Regarding `O=S1c2ccc(Cl)cc2CC(SSC2Cc3cc(Cl)ccc3S(=O)c3ccccc32)c2ccccc21` (stereo unspecified), the total growth inhibition concentration (TGI) in assay [1], in assay [4], in assay [5], in assay [6], in [7] and in [8] was more than 100 µM in each case. Moreover, the TGI in assay [9], in assay [10], in [11], in [12], in assay [13] and in assay [14] was more than 100 µM throughout. Also, the TGI in assay [15], in [16] and in assay [17] was more than 100 µM in each case.

As for `O=C(O)CCSc1nnc(COc2ccc(Cl)cc2)n1-c1ccccc1`, the TGI in assay [1], in assay [2], in assay [3], in [4], in assay [5] and in assay [6] was more than 100 µM in each case. For the same compound, the TGI in [7], in assay [8], in [9], in [10], in assay [11] and in assay [12] was more than 100 µM each time. Moreover, the TGI in assay [13], in assay [14], in assay [15], in assay [16] and in assay [17] was more than 100 µM in each case.

On to `CO[C@H](c1ccccc1)[C@H](O)[C@](O)(c1ccccc1)P(=O)(OC)OC`, for which the TGI in assay [1], in [3], in [4], in assay [5], in assay [6] and in assay [7] was more than 100 µM in each case. Also, the TGI in assay [8], in assay [9], in [10], in assay [11], in assay [12] and in assay [13] was more than 100 µM throughout. In addition, the TGI in [14], in assay [15], in assay [16] and in assay [17] was more than 100 µM in each case.

On to `CC1=[N+]([O-])C(C)(C)N(O)C1(C)C`, for which the TGI in assay [1], in assay [2], in [3], in assay [4], in assay [5] and in assay [6] was more than 100 µM each time. The TGI in [7], in [8], in assay [9], in assay [10], in assay [11] and in [12] was more than 100 µM in each case. In addition, the TGI in assay [13], in [14], in assay [15], in [16] and in [17] was more than 100 µM each time.

`CN(CCO)c1nc2c(c(=O)[nH]1)CNCC2`: the TGI in assay [1], in assay [4], in assay [5], in assay [6], in assay [7] and in assay [8] was more than 100 µM each time. For the same compound, the TGI in assay [9], in [10], in assay [11], in [12], in assay [13] and in assay [14] was more than 100 µM in each case. The TGI in assay [15], in [16] and in assay [17] was more than 100 µM throughout.

Consider `CC(C)N1CCCOC(c2ccc([N+](=O)[O-])cc2)O1` (stereo unspecified), for which the TGI in [1], in assay [2], in assay [3], in [4], in [5] and in [6] was more than 100 µM each time. Besides, the TGI in assay [7], in [8], in assay [9], in assay [10], in [11] and in assay [13] was more than 100 µM throughout. For the same compound, the TGI in assay [14], in assay [15], in [16] and in [17] was more than 100 µM in each case.

With `CCOC(=O)C1C(c2ccc([N+](=O)[O-])cc2)NC(c2ccc([N+](=O)[O-])cc2)C(C(=O)OC)S1(=O)=O` (stereo unspecified), the TGI in assay [1], in assay [4], in assay [5], in assay [8], in assay [9] and in assay [10] was more than 100 µM in each case. Also, the TGI in [11], in assay [12], in assay [13], in assay [14], in assay [15] and in [16] was more than 100 µM each time. The compound further displayed a TGI in assay [17] of more than 100 µM.

In the case of `N=C(N)C1CN(CC=O)C(=O)NC1=O` (stereo unspecified), the TGI in assay [1], in assay [2], in assay [3], in assay [4], in assay [5] and in [7] was more than 100 µM in each case. In addition, the TGI in assay [8], in assay [9], in assay [10], in assay [11], in assay [12] and in [13] was more than 100 µM throughout. Moreover, the TGI in assay [14], in assay [15] and in assay [17] was more than 100 µM in each case.

In the case of `CC(CCC(=O)O)[C@H]1CCC2[C@H]3C(CC(=O)[C@@]21C)[C@@]1(C)CCC(O)C[C@H]1C[C@@H]3O` (stereo partly specified), the TGI in [1], in [2], in [3], in [4], in assay [5] and in [6] was more than 100 µM each time. The TGI in assay [7], in assay [8], in assay [9], in assay [11], in assay [12] and in assay [13] was more than 100 µM throughout. Besides, the TGI in assay [14], in assay [15] and in assay [16] was more than 100 µM each time.

For `CNC(=O)CN(CC(N)=O)C(=O)NC`, the TGI in [1], in assay [4], in assay [6], in assay [7], in assay [8] and in assay [9] was more than 100 µM each time. Besides, the TGI in assay [10], in [11], in assay [12], in [13], in assay [14] and in assay [15] was more than 100 µM each time. Besides, the TGI in assay [16] and in assay [17] was more than 100 µM throughout.

As for `C=C(Cl)C(Br)(CBr)CCC(Br)C(C)(C)Br` (stereo unspecified), the TGI was more than 10 µM in [1]; 5.32 µM in [2]; more than 10 µM in [3]; more than 10 µM in [4]; 3.92 µM in assay [5]; 4.92 µM in [6]. Further, the TGI in assay [7] was more than 10 µM; in assay [8], more than 10 µM; in assay [9], more than 10 µM; in assay [10] it was more than 10 µM; in [12], more than 10 µM; in assay [13], 3.68 µM. For the same compound, the TGI in assay [14], in assay [15], in assay [16] and in assay [17] was more than 10 µM each time.

Consider `Cc1cc2nc3c(C#N)c(-c4ccccc4)cc(Nc4ccc(F)cc4)n3c2cc1C`, for which the TGI was more than 100 µM in assay [1]; more than 100 µM in assay [3]; more than 100 µM in [5]; 34.8 µM in assay [6]; 36.5 µM in assay [7]; more than 100 µM in assay [8]. For the same compound, the TGI in assay [9] was 45.2 µM; in [10] it was 39.3 µM; in assay [14], 52.9 µM; in assay [16] it was more than 100 µM; in [17] it was 46.4 µM.

Regarding `CCCCCCCCCCCCNC1(C)CNCCCNCCNCCCNC1`, the TGI was found to be 2.95 µM in [1]; 3.25 µM in assay [4]; 2.59 µM in [5]; 3.29 µM in assay [6]; 4.55 µM in assay [7]; 3.29 µM in assay [8]. Also, the TGI in assay [9] turned out to be 4.54 µM; in assay [10], 3.1 µM; in assay [11] it was 2.69 µM; in assay [13] it was 2.35 µM; in assay [14], 12.8 µM; in [15] it was 3.22 µM. The figures for the total growth inhibition concentration (TGI) in [16] and in [17] were 2.89 µM and 3.28 µM, respectively.

As for `COC(=O)c1cc(C#N)[nH]c1-c1cccs1`, the TGI in [3], in assay [4], in [5], in [6], in assay [7] and in assay [8] was more than 100 µM throughout. In addition, the TGI in assay [9], in assay [11], in assay [12], in assay [14], in [15] and in assay [16] was more than 100 µM in each case. Further, the TGI in [17] is more than 100 µM.

For the compound `COc1c(O)cc2c(c1O)C1O[C@H](CO)C(O)[C@H](O)[C@H]1OC2=O` (stereo partly specified), the TGI in assay [1], in [2], in assay [3], in assay [5], in assay [6] and in assay [7] was more than 100 µM throughout. Also, the TGI in [8], in [9], in [10], in assay [11], in assay [12] and in assay [13] was more than 100 µM each time. In addition, the TGI in assay [15], in assay [16] and in assay [17] was more than 100 µM each time.

Take `COc1ccc(C(CC(=O)c2ccccc2)C(=O)c2ccc3c(c2)OCO3)cc1` (stereo unspecified): the TGI in assay [2], in assay [3], in assay [4], in [8], in assay [10] and in [11] was more than 100 µM throughout. The TGI in assay [12], in [13], in assay [14], in [15] and in assay [16] was more than 100 µM throughout.

For orientation: TGI means the concentration at which net growth stops. Read a low TGI as greater sensitivity of the cells.
